This is an account of results in publication PMC6450568 (Bioorganic & medicinal chemistry letters, 2019).

Read-outs that look alike come from different tables or passages of the source.

Assay [1] addresses T1, native Rho (rhodanese) reporter enzyme (Bos taurus, UniProt P00586).
T1 sequence (P00586 2-297 limits assumed): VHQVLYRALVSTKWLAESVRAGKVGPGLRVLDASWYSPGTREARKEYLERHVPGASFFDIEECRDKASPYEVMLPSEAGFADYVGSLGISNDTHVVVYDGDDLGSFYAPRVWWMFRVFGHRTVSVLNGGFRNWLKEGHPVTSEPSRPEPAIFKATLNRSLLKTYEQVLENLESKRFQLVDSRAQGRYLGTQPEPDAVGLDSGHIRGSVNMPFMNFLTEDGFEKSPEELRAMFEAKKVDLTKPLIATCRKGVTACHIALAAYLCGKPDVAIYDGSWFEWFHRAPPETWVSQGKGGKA
As to the kind of experiment: Native Rho enzymatic reporter counter-screen. The assay is classed as biochemical. In general terms: A counterscreen serves to expose hits that act by an unwanted route or on another target.

Assay [2] addresses T2, native MDH (malate dehydrogenase) reporter enzyme (Sus scrofa, UniProt P00346).
T2 sequence (P00346 25-338): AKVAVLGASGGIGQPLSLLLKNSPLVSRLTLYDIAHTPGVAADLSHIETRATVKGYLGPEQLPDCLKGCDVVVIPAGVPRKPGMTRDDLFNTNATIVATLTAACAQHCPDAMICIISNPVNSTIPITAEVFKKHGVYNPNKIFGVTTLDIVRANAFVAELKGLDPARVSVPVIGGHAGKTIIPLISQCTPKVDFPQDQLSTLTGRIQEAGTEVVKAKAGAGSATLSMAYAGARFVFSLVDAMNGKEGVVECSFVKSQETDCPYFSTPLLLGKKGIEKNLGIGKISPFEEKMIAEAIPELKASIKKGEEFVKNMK
The assay is described as follows: Native MDH enzymatic reporter counter-screen. Format: biochemical.

Assay [3] addresses T3, E. coli GroEL/ES chaperonin system (Escherichia coli, UniProt P0A6F5). The assay is described as follows: biochemical.
The target in a further assay is E. coli GroEL (Escherichia coli, UniProt P0A6F5). As to the kind of experiment: Isothermal Titration Calorimetry of suramin binding to GroEL. The note with it: ITC, average of triplicate analyses.
Assay [4] concerns the target T3, E. coli GroEL/ES chaperonin system. As to the kind of experiment: High-throughput screens of LOPAC and MicroSource Spectrum libraries. The assay is classed as biochemical. The settings on record: both GroEL/ES-dMDH and GroEL/ES-dRho screens, single concentration.
Assay [5] shares this target. As to the kind of experiment: biochemical. The source holds these as a separate data set.
For assay [6], the target named is human HSP60/10 chaperonin system (Homo sapiens, UniProt P10809). As to the kind of experiment: HSP60/10-dMDH refolding assay. Format: biochemical.
In the next assay the target is GroEL ATPase (Escherichia coli, UniProt P0A6F5). As to the kind of experiment: biochemical.
Setting [7] is: Biochemical Assay IC50, GroEL/ES-mediated refolding of dMDH, dose-response.

T3 sequence (P0A6F5 2-548): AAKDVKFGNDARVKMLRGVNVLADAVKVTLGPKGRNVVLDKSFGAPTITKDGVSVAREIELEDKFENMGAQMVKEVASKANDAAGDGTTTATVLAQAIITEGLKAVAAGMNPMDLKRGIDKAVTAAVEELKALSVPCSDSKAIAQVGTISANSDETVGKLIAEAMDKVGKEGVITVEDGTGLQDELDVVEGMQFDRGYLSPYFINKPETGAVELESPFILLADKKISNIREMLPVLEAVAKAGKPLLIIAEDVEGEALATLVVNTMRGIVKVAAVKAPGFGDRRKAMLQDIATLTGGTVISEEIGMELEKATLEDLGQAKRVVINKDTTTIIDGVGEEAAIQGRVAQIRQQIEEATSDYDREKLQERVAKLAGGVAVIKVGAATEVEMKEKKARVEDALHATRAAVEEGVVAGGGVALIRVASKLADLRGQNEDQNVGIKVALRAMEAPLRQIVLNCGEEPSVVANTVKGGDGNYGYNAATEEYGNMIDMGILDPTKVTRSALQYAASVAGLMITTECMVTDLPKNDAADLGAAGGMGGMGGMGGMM
E. coli GroEL, sequence (P0A6F5 2-548): as above
human HSP60/10 chaperonin system, sequence (P10809 27-573): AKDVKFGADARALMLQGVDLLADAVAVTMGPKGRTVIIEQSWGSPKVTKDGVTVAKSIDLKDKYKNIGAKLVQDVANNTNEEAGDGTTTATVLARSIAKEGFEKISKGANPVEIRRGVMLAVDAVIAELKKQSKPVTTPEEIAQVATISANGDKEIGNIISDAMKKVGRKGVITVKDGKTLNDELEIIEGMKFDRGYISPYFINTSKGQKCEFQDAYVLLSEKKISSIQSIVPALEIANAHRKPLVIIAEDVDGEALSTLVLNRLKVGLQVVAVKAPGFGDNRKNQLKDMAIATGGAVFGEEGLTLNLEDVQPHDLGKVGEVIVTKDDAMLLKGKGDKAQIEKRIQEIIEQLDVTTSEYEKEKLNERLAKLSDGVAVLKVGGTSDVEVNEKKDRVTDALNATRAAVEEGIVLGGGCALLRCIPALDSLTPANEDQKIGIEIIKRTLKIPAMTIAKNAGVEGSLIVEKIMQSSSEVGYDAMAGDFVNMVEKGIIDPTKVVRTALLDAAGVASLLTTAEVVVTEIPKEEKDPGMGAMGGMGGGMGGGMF
GroEL ATPase, sequence (P0A6F5 2-548): as the sequence (P0A6F5 2-548) above

As a reminder, the IC50 is the concentration that inhibits the measured activity by half. Read a high IC50 as weaker potency in that assay. In general, Kd refers to the constant that tells how readily two partners part at equilibrium. Lower therefore signals tighter binding. For the compound `Cc1ccc(C(=O)Nc2ccc(S(=O)(=O)O)c3cc(S(=O)(=O)O)cc(S(=O)(=O)O)c23)cc1NC(=O)c1cccc(NC(=O)Nc2cccc(C(=O)Nc3cc(C(=O)Nc4ccc(S(=O)(=O)O)c5cc(S(=O)(=O)O)cc(S(=O)(=O)O)c45)ccc3C)c2)c1` [Compound 28, Suramin], the IC50 in assay [1] is over 100 µM. In assay [2], this compound came in with an IC50 of over 63 µM. Further, the IC50 in assay [3] (Assay IC50, GroEL/ES-dMDH Refolding, Table 1) was 8.1 µM. In assay [3] (setting [7]), 8.1 µM corresponded to half-maximal inhibition (IC50). Further, the IC50 in assay [3] (IC50 values for inhibiting GroEL/ES refolding functions, approximate, dMDH and dRho refolding assays together) was in the range of 10 to 15 µM. At E. coli GroEL, binding was put at a Kd of 21 µM, the “Log(Kd/μM)” value stood at 1.31 ± 0.30, the TΔS is 4.15 ± 0.72 kcal/mol and the ΔG was -6.22 ± 0.41 kcal/mol. In addition, on E. coli GroEL, the ΔH is -2.07 ± 0.36 kcal/mol and the ΔS is on record as 0.014 ± 0.002 kcal/mol·K. Besides, at E. coli GroEL (per GroEL tetradecamer, listed as Suramin (28)), the “Stoichiometry n, Molecule : GroEL oligomer” value stood at 9.4 ± 0.6. The “Stoichiometry n, Molecule : GroEL monomer” value on E. coli GroEL (single-site binding model) was determined as 0.67 ± 0.05. The “inhibition cutoff in primary and secondary high-throughput screens” value in assay [4] is on record as “did not meet the 50% inhibition cutoff”.
As for `CC(C)n1c(/C=C/C(O)CC(O)CC(=O)O)c(-c2ccc(F)cc2)c2ccccc21` (centres unmarked) [Compound 60, Fluvastatin sodium], the IC50 in assay [1] was over 100 µM; in assay [2], over 63 µM; in assay [5] it was over 250 µM; in assay [3] (setting [7]), over 100 µM; in assay [6] it was over 100 µM; against GroEL ATPase, over 250 µM.
